Earlier results, collected in patent US9265822B2 (priority 2009, dated 2016).

System: American isolates of H3N2

Compound	measured resistance [%]
CC(N)C12CC3CC(CC(C3)C1)C2 (centres unmarked) [rimantadine]	91
NC12CC3CC(CC(C3)C1)C2 [amantadine]	91
